Tested on: NCI-H295R
Assay: IC50 (antiproliferative, ATP content)
Details: 48 h
In short: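 Adrenocortical carcinoma cells (1500 per well) were seeded in serum-free ITS-supplemented DMEM in 1536-well plates and cultured overnight. Library compounds were then pin-transferred at 8 final concentrations from 0.6 nM to 46 µM, and plates were kept 48 h at 37 °C, 5% CO2. ATP was read as CellTiter-Glo luminescence after 20 min at room temperature and normalised to vehicle (0%) and positive control (100% inhibition). IC50 came from four-parameter logistic fits; compounds with no concentration response were recorded as above the top dose.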

Compound	IC50 [µM]
C=C[C@H]1CN2CC[C@H]1C[C@H]2[C@H](O)c1ccnc2ccc(OC)cc12	> 46
CN1C(C(=O)Nc2ccccn2)C(=O)c2sc(Cl)cc2S1(=O)=O (stereo unspecified)	> 46
CN1CCN(CCC(=O)N2c3ccccc3Sc3ccc(C(F)(F)F)cc32)CC1	> 46
O=S(=O)([O-])O.[Na+]	> 46
O=C1C2=C(C=C(C=C2O)O)O/C(=C\1O)C3=CC(=C(C=C3)O)O.O.O	> 46
O=C(C3=CC=CC=C3)O[C@@H]1C[C@H](CC2)N(C)[C@H]2[C@H]1[C@@](OC)=O.Cl	> 46
COCCCC/C(=N\OCCN)c1ccc(C(F)(F)F)cc1	> 46
CCCCCCCCCCCC(=O)[O][Sn]([CH2]CCC)([CH2]CCC)[O]C(=O)CCCCCCCCCCC	> 46
CCCCCCCCCCCCCCCC(=O)OC[C@H](COP(=O)([O-])OCC[N+](C)(C)C)OC(=O)CCCCCCCCCCCCCCC	> 46
CCNC(=O)N(CCCN(C)C)C(=O)[C@@H]1C[C@@H]2c3cccc4N\C=C(\C[C@H]2N(C1)CC=C)c34	> 46
O.O=S(=O)([O-])CC(S)CS.[Na+] (stereo unspecified)	> 46
O=C(CCNNC(=O)c1ccncc1)NCc1ccccc1	> 46
CC(=O)N[C@@H](CC(=O)N[C@@H](CCC(=O)O)C(=O)O)C(=O)O	> 46
OC[C@H](CC)NC(=O)[C@@H]2/C=C1/c3cccc4N\C=C(\C[C@H]1N(C)C2)c34	> 46
O[C@@H]3C\C4=C\C[C@@H]1[C@H](CC[C@]2(C)[C@@H](O)CC[C@@H]12)[C@@]4(C)CC3	> 46
CCCCCCCC(=O)O	> 46
CCCCCCC[N+](CC)(CC)CCCCc1ccc(Cl)cc1.Cc1ccc(S(=O)(=O)[O-])cc1	> 46
CN1CCN2c3ccccc3Cc3ccccc3C2C1 (stereo unspecified)	> 46
NCc1ccccc1Sc1ccccc1CO	> 46
Cc1cc(C(C)(C)C)c(O)c(C)c1CC1=NCCN1	> 46
O=C1[O][Bi]([OH])[O]c2ccccc21	> 46

Compound	IC50 [µM]
Clc1ccc(Cl)cc1	> 46
CC(CN1c2ccccc2Sc2ccccc21)N(C)C (stereo unspecified)	> 46
CN/C(=N\c1ccc(C2=NNC(=O)CC2C)cc1)NC#N (stereo unspecified)	> 46
CC(=O)N(CC(O)CN(C(C)=O)c1c(I)c(C(=O)NCC(O)CO)c(I)c(C(=O)NCC(O)CO)c1I)c1c(I)c(C(=O)NCC(O)CO)c(I)c(C(=O)NCC(O)CO)c1I (stereo unspecified)	> 46
CCOC(=O)[N-]c1c[n+](N2CCOCC2)no1	> 46
CC(C)(C)NCC(O)c1ccc(O)c(CO)n1.Cl (stereo unspecified)	> 46
CCCN[C@H]1CCc2nc(N)sc2C1	> 46
CC1=C(C=C/C(C)=C/C=C/C(C)=C/CO)C(C)(C)CCC1	> 46
O=C1C[N+]([O-])=C(c2ccccc2)c2cc(Cl)ccc2N1	> 46
CC1CC(OC(=O)C(O)c2ccccc2)CC(C)(C)N1C.Cl (stereo unspecified)	> 46
Cc1nnc2n1-c1ccc(Cl)cc1C(c1ccccc1)=NC2	> 46
Clc1cccc(N2CCNCC2)c1	> 46
CCCCN1C[C@H](O)[C@@H](O)[C@H](O)[C@H]1CO	> 46
NCCC[C@H](N)CC(=O)N[C@H]1CNC(=O)[C@H]([C@H]2C[C@H](O)N=C(N)N2)NC(=O)/C(=C/NC(N)=O)NC(=O)[C@H](CO)NC(=O)[C@H](CO)NC1=O.O=S(=O)(O)O	> 46
CC(=O)Nc1cccc(O)c1	> 46
O[C@@H]3C\C4=C\C[C@@H]2[C@H](CC[C@]1(C)C(=O)CC[C@H]12)[C@@]4(C)CC3	> 46
C[C@H](O)[C@H](O)[C@H]1CNc2[nH]c(N)nc(=O)c2N1.Cl.Cl	> 46
CCCCCCCCOc1ccc(C(=O)c2ccccc2)c(O)c1	> 46
NC(=O)OCCCc1ccccc1	> 46
C[C@@H]1C[C@H]2[C@@H]3C[C@H](F)C4=CC(=O)C=C[C@]4(C)[C@@]3(F)[C@@H](O)C[C@]2(C)[C@@]1(O)C(=O)CO	> 46

From the supplement of paper PMC3493320
